{
  "source": "patent US9549922B2",
  "about": "“Use of eribulin and lenvatinib as combination therapy for treatment of cancer” (priority 2013, dated 2017)",
  "key": {"in vivo": {"assay": "in vivo", "conditions": "athymic, mouse"}, "[1]": {"system": "NCI-H1993 human non-small cell lung cancer xenografts", "assay": "Antitumor activity in NCI-H1993 human non-small cell lung cancer xenografts (tumor volume)", "type": "in vivo, mice", "conditions": "single treatment: E7389 1.5 mg/kg i.v. Q7Dx2; E7080 10 mg/kg p.o. Q1Dx12", "protocol": "(§1) Human non-small cell lung cancer cell lines, NCI-H1993 and PC-9, were maintained in monolayer cultures in RPMI-1640 medium supplemented with 10% Fetal Bovine Serum and 1% of Penicillin-Streptomycin-Amphotericin at 37° C. in a 5% CO2 humidified incubator. On the day of inoculation, cells were harvested by Trypsinization, washed, and mixed 1:1 (v/v) with medium/GelTrex. NCI-H1993 and PC-9 human non-small cell lung cancer cells (10×10^6 cells per animal) were inoculated subcutaneously near the right axillary area using a 26-gauge needle in a 0.1 mL volume in female immuncompromised mice (Mouse: BALB/c Slc nu/nu; Japan SLC, Inc.).\n(§2) The experiment consisted of a no inject control group, a single agent drug-treated group for either E7389 (1.5 mg/kg) or E7080 (10 mg/kg), and combination drug-treated groups. Each group was composed of five mice. […] Following randomization, drug treatment was initiated. E7389 (1.5 mg/kg) was intravenously administered weekly for two weeks (Q7Dx2). E7080 was orally administered daily for 12 days (Q1Dx12). Both drugs were administered at a volume of 0.1 mL per 10 g body weight.\n(§3) Tumor volume was determined by caliper measurements (mm) using the formula Tumor volume (mm^3)=length (mm)×width^2(mm^2)×½\n(§4) The mean±SD for tumor volume for each experimental group was calculated. […]"}, "[2]": {"system": "PC-9 human non-small cell lung cancer xenografts", "assay": "Antitumor activity in PC-9 human non-small cell lung cancer xenografts (tumor volume)", "type": "in vivo, mice", "conditions": "single treatment: E7389 1.5 mg/kg i.v. Q7Dx2; E7080 10 mg/kg p.o. Q1Dx12", "protocol": "as §1, §2, §3, §4"}, "[3]": {"system": "A375 human malignant melanoma xenografts", "assay": "Antitumor activity in A375 human malignant melanoma xenograft model (tumor volume)", "type": "in vivo", "conditions": "single agent at highest dose: E7389 3.0 mg/kg i.v. Q7Dx2; E7080 15 mg/kg p.o. Q1Dx14; female athymic mice", "description": "Following randomization, drug treatment was initiated.\nA value of P<0.05 was considered statistically significant."}, "[4]": {"assay": "Relative body weight change in A375 xenograft study", "type": "in vivo, mice", "conditions": "E7389 alone at 3.0 mg/kg i.v. Q7Dx2", "procedure": "The experiment consisted of a vehicle-treated control group, a single agent drug-treated group for either E7389 or E7080, and three combination drug-treated groups (summarized in Table 1). Each group was composed of six mice for a total of 48 mice on the first day of treatment. […] Following randomization, drug treatment was initiated. E7080 was orally administered daily for 14 days (Q1Dx14) at a volume of 0.1 mL per 10 g body weight. E7389 (0.05 mg/kg) was intravenously administered daily for 14 days. In the combination group, E7389 was administered three hours after oral administration of E7080. […]\nThe general health of the mice was monitored daily. Tumor volume was determined by caliper measurements (mm) using the formula (1×w^2)/2=mm^3, where 1 and w refer to the larger and smaller perpendicular dimensions collected at each measurement. Tumor dimensions and body weight were recorded twice per week starting the first day of treatment. Relative body weight was calculated as follows: Relative body weight=(body weight on day of measurement)/(body weight on first day of treatment).\nThe data generated consisted of group mean body weights at each measurement and group mean tumor volumes at each measurement. The mean±SEM for tumor volume and relative body weight for each experimental group was calculated."}},
  "note": "Entries after “also recorded” stand apart in the source; their conditions may differ.",
  "data": [
    {"molecule": "COc1cc2nccc(Oc3ccc(NC(=O)NC4CC4)c(Cl)c3)c2cc1C(N)=O.CS(=O)(=O)O", "note": "[E7080, 4-[3-chloro-4-[[(cyclopropylamino)carbonyl]amino]phenoxy]-7-methoxy-6-quinolinecarboxamide, methanesulfonate (1:1)]", "values": [
      {"measurement": "MTD at 14 days", "setting": "in vivo", "value": 15, "unit": "mg/kg"},
      {"measurement": "antitumor activity (tumor volume)", "setting": "[1]", "value": "significant antitumor activity"},
      {"measurement": "antitumor activity (tumor volume)", "setting": "[2]", "value": "significant antitumor activity"},
      {"measurement": "antitumor effect (tumor volume)", "setting": "[3]", "value": "tumor growth delay, but not tumor regression"}
    ]},
    {"molecule": "C=C1C[C@@H]2CC[C@@]34C[C@H]5O[C@@H]6[C@@H](O3)[C@H]3O[C@H](CC[C@@H]3O[C@H]6[C@H]5O4)CC(=O)C[C@@H]3[C@@H](OC)[C@@H](C[C@H](O)CN)O[C@H]3C[C@H]3O[C@@H](CC[C@@H]1O2)C[C@@H](C)C3=C.CS(=O)(=O)O", "note": "[E7389, (2R,3R,3aS,7R,8aS,9S,I0aR,11S,12R,13aR,13bS,15S,18S,21S,24S,26R,28R,29aS)-2-[(2S)-3-amino-2-hydroxypropyl]hexacosahydro-3-methoxy-26-methyl-20,27-bis(methylene)-11,15:18,21:24,28-triepoxy-7,9-ethano-12,15-methano-9H,15H-furo[3,2-i]furo[2′,3′:5,6]pyrano[4,3-b][1,4]dioxacyclopentacosin-5(4H)-one, methanesulfonate (salt)]", "values": [
      {"measurement": "MTD at 14 days", "setting": "in vivo; other: E7389 i.v., E7080 p.o.", "value": 3, "unit": "mg/kg"},
      {"measurement": "antitumor activity (tumor volume)", "setting": "[1]", "value": "significant antitumor activity"},
      {"measurement": "antitumor activity (tumor volume)", "setting": "[2]", "value": "significant antitumor activity"},
      {"measurement": "antitumor effect (tumor volume)", "setting": "[3]", "value": "tumor growth delay, but not tumor regression; also recorded: strong antitumor activity"},
      {"measurement": "relative body weight change", "setting": "[4]", "value": "Body weight loss was observed"}
    ]}
  ]
}
